Measured values taken from US20250353891A1 (MEDIMMUNE LIMITED, priority 2022, published 2025).
Starred links: 1 amine or outer side, 2 acyl side, 3 side chain; linkers in the order of their positions; H or OH if unused. Non-standard residues stand in square brackets, D forms with d. Residues, ends and D or L forms follow the SMILES beside them. Groups on a side chain read outwards from the residue. *: point of attachment. C20 diacid = O=C(O)CCCCCCCCCCCCCCCCCCC(=O)*; C18 diacid = O=C(O)CCCCCCCCCCCCCCCCC(=O)*; γGlu = O=C(O)[C@H](CCC(=O)[*:2])N[*:1]; αMeF = C[C@](N)(Cc1ccccc1)C(=O)O; AEEA = NCCOCCOCC(=O)O; Aib = CC(C)(N)C(=O)O

Assays:
[1] = biological target: human GLP-1 receptor (hGLP-1R) (Homo sapiens, UniProt P43220); assay: cAMP production (HTRF) in CHO cells expressing hGLP-1R; format: cell-based; design: expressed in transfected cells; details: for EC50: Table 6, peptides modified at position 17, cAMP in CHO hGLP-1R cells, geometric mean, read-out: hGLP-1R EC50; for % Relative Potency Ratio: Table 6, % GLP-1R activity relative to GLP-1 / % GlucR activity relative to glucagon
Method in brief: (§1)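 Cells were resuspended in assay buffer at batch-optimized density, typically 1×10^5 cells/mL for hGLP-1R and 2×10^5 cells/mL for hGCGR. After 30 min incubation at room temperature with compound, cAMP was measured by two-step HTRF. EC50 values came from 4-parameter logistic fits of % Delta F.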

[2] = biological target: human glucagon receptor (hGCGR) (Homo sapiens, UniProt P47871); assay: cAMP production (HTRF) in CHO cells expressing hGCGR; format: cell-based; design: expressed in transfected cells; details: Table 6, peptides modified at position 17; cAMP in CHO hGCGR cells; geometric mean; read-out: hGluc-R EC50
Method in brief: as §1

human glucagon receptor (hGCGR), sequence (P47871 26-477): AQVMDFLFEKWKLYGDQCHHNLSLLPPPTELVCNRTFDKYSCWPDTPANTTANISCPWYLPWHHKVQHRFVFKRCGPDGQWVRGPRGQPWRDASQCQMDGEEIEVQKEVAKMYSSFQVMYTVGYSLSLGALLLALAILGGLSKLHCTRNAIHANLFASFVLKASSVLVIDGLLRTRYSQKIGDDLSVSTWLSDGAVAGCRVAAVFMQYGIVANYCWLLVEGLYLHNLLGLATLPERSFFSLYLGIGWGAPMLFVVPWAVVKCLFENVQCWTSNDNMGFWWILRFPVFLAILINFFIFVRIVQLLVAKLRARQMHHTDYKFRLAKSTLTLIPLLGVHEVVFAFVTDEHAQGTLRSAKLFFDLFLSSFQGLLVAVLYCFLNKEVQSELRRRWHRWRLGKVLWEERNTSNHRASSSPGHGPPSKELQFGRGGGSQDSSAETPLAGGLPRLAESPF
human GLP-1 receptor (hGLP-1R), sequence (P43220 24-463): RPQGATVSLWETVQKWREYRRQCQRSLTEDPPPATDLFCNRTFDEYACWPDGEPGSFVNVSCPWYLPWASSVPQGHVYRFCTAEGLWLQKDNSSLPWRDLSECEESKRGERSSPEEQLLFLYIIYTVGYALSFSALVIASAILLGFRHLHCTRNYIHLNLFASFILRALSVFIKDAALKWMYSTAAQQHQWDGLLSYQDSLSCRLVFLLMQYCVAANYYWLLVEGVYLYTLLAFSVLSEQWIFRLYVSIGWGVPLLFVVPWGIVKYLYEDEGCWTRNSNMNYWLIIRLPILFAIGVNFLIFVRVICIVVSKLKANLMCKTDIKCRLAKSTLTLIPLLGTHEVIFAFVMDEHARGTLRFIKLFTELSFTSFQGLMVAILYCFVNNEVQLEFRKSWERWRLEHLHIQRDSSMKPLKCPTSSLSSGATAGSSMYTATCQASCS

Compound	EC50 [1]	% Relative Potency Ratio [1]	EC50 [2]
CC(C)C[C@H](NC(=O)[C@](C)(Cc1ccccc1)NC(=O)[C@H](CCCCN)NC(=O)[C@H](CO)NC(=O)[C@@H](NC(=O)[C@H](CC(=O)O)NC(=O)[C@H](CO)NC(=O)[C@@H](NC(=O)[C@H](Cc1ccccc1)NC(=O)[C@@H](NC(=O)CNC(=O)[C@H](CCC(N)=O)NC(=O)C(C)(C)NC(=O)[C@@H](N)Cc1c[nH]cn1)[C@@H](C)O)[C@@H](C)O)C(C)C)C(=O)N[C@@H](CC(=O)O)C(=O)N[C@@H](CO)C(=O)N[C@@H](CCCCNC(=O)COCCOCCNC(=O)COCCOCCNC(=O)CC[C@H](NC(=O)CCCCCCCCCCCCCCCCC(=O)O)C(=O)O)C(=O)N[C@@H](CCCNC(=N)N)C(=O)N[C@@H](C)C(=O)N[C@@H](CCC(N)=O)C(=O)N[C@@H](CC(=O)O)C(=O)N[C@@H](Cc1ccccc1)C(=O)N[C@H](C(=O)N[C@@H](CCCNC(=N)N)C(=O)N[C@@H](Cc1c[nH]c2ccccc12)C(=O)N[C@H](C(=O)N[C@H](C(=O)N[C@@H](CCC(=O)O)C(=O)NC(C)(C)C(=O)NCC(=O)O)C(C)C)C(C)C)C(C)C [Peptide 149] (H-H[Aib]QGTFTSDVSK[αMeF]LDSK([AEEA-AEEA-γGlu-C18 diacid])RAQDFVRWVVE[Aib]G-OH; N-terminus assumed)	0.00871 nM	602.8	2.65 nM
CC(C)C[C@H](NC(=O)[C@H](Cc1c[nH]c2ccccc12)NC(=O)[C@H](CCC(N)=O)NC(=O)[C@@H](NC(=O)[C@H](Cc1ccccc1)NC(=O)[C@H](CC(=O)O)NC(=O)[C@H](CCC(N)=O)NC(=O)[C@H](C)NC(=O)[C@H](CCCNC(=N)N)NC(=O)[C@H](CCCCNC(=O)COCCOCCNC(=O)COCCOCCNC(=O)CC[C@H](NC(=O)CCCCCCCCCCCCCCCCC(=O)O)C(=O)O)NC(=O)[C@H](CO)NC(=O)[C@H](CC(=O)O)NC(=O)[C@H](CC(C)C)NC(=O)[C@](C)(Cc1ccccc1)NC(=O)[C@H](CCCCN)NC(=O)[C@H](CO)NC(=O)[C@@H](NC(=O)[C@H](CC(=O)O)NC(=O)[C@H](CO)NC(=O)[C@@H](NC(=O)[C@H](Cc1ccccc1)NC(=O)[C@@H](NC(=O)CNC(=O)[C@H](CCC(N)=O)NC(=O)C(C)(C)NC(=O)[C@@H](N)Cc1c[nH]cn1)[C@@H](C)O)[C@@H](C)O)C(C)C)C(C)C)C(=O)N[C@@H](CC(C)C)C(=O)NC(C)(C)C(=O)N[C@H](C(=O)N[C@@H](CCC(=O)O)C(=O)O)[C@@H](C)O [Peptide 150] (H-H[Aib]QGTFTSDVSK[αMeF]LDSK([AEEA-AEEA-γGlu-C18 diacid])RAQDFVQWLL[Aib]TE-OH; N-terminus assumed)	0.166 nM	4.2	0.355 nM
CC(C)C[C@H](NC(=O)[C@H](Cc1c[nH]c2ccccc12)NC(=O)[C@H](CCCNC(=N)N)NC(=O)[C@@H](NC(=O)[C@H](Cc1ccccc1)NC(=O)[C@H](CC(=O)O)NC(=O)[C@H](CCC(N)=O)NC(=O)[C@H](C)NC(=O)[C@H](CCCNC(=N)N)NC(=O)[C@H](CCCCNC(=O)COCCOCCNC(=O)COCCOCCNC(=O)CC[C@H](NC(=O)CCCCCCCCCCCCCCCCCCC(=O)O)C(=O)O)NC(=O)[C@H](CO)NC(=O)[C@H](CC(=O)O)NC(=O)[C@H](CC(C)C)NC(=O)[C@](C)(Cc1ccccc1)NC(=O)[C@H](CCCCN)NC(=O)[C@H](CO)NC(=O)[C@@H](NC(=O)[C@H](CC(=O)O)NC(=O)[C@H](CO)NC(=O)[C@@H](NC(=O)[C@H](Cc1ccccc1)NC(=O)[C@@H](NC(=O)CNC(=O)[C@H](CCC(N)=O)NC(=O)C(C)(C)NC(=O)[C@@H](N)Cc1c[nH]cn1)[C@@H](C)O)[C@@H](C)O)C(C)C)C(C)C)C(=O)N[C@@H](CC(C)C)C(=O)NC(C)(C)C(=O)N[C@H](C(=O)N[C@@H](CCC(=O)O)C(=O)O)[C@@H](C)O [Peptide 151] (H-H[Aib]QGTFTSDVSK[αMeF]LDSK([AEEA-AEEA-γGlu-C20 diacid])RAQDFVRWLL[Aib]TE-OH; N-terminus assumed)	0.111 nM	3.2	0.178 nM
CC(C)C[C@H](NC(=O)[C@H](Cc1c[nH]c2ccccc12)NC(=O)[C@H](CCCNC(=N)N)NC(=O)[C@@H](NC(=O)[C@H](Cc1ccccc1)NC(=O)[C@H](CC(=O)O)NC(=O)[C@H](CCC(N)=O)NC(=O)[C@H](C)NC(=O)[C@H](CCCNC(=N)N)NC(=O)[C@H](CCCCNC(=O)COCCOCCNC(=O)COCCOCCNC(=O)CC[C@H](NC(=O)CCCCCCCCCCCCCCCCC(=O)O)C(=O)O)NC(=O)[C@H](CO)NC(=O)[C@H](CC(=O)O)NC(=O)[C@H](CC(C)C)NC(=O)[C@](C)(Cc1ccccc1)NC(=O)[C@H](CCCCN)NC(=O)[C@H](CO)NC(=O)[C@@H](NC(=O)[C@H](CC(=O)O)NC(=O)[C@H](CO)NC(=O)[C@@H](NC(=O)[C@H](Cc1ccccc1)NC(=O)[C@@H](NC(=O)CNC(=O)[C@H](CCC(N)=O)NC(=O)C(C)(C)NC(=O)[C@@H](N)Cc1c[nH]cn1)[C@@H](C)O)[C@@H](C)O)C(C)C)C(C)C)C(=O)N[C@@H](CC(C)C)C(=O)NC(C)(C)C(=O)N[C@@H](CCC(=O)O)C(=O)O [Peptide 152] (H-H[Aib]QGTFTSDVSK[αMeF]LDSK([AEEA-AEEA-γGlu-C18 diacid])RAQDFVRWLL[Aib]E-OH; N-terminus assumed)	0.0119 nM	3.4	0.0204 nM
CC(C)C[C@H](NC(=O)[C@H](Cc1c[nH]c2ccccc12)NC(=O)[C@H](CCCNC(=N)N)NC(=O)[C@@H](NC(=O)[C@H](Cc1ccccc1)NC(=O)[C@H](CC(=O)O)NC(=O)[C@H](CCC(N)=O)NC(=O)[C@H](C)NC(=O)[C@H](CCCNC(=N)N)NC(=O)[C@H](CCCCNC(=O)COCCOCCNC(=O)COCCOCCNC(=O)CC[C@H](NC(=O)CCCCCCCCCCCCCCCCCCC(=O)O)C(=O)O)NC(=O)[C@H](CO)NC(=O)[C@H](CC(=O)O)NC(=O)[C@H](CC(C)C)NC(=O)[C@](C)(Cc1ccccc1)NC(=O)[C@H](CCCCN)NC(=O)[C@H](CO)NC(=O)[C@@H](NC(=O)[C@H](CC(=O)O)NC(=O)[C@H](CO)NC(=O)[C@@H](NC(=O)[C@H](Cc1ccccc1)NC(=O)[C@@H](NC(=O)CNC(=O)[C@H](CCC(N)=O)NC(=O)C(C)(C)NC(=O)[C@@H](N)Cc1c[nH]cn1)[C@@H](C)O)[C@@H](C)O)C(C)C)C(C)C)C(=O)N[C@@H](CC(C)C)C(=O)NC(C)(C)C(=O)N[C@@H](CCC(=O)O)C(=O)O [Peptide 153] (H-H[Aib]QGTFTSDVSK[αMeF]LDSK([AEEA-AEEA-γGlu-C20 diacid])RAQDFVRWLL[Aib]E-OH; N-terminus assumed)	0.0412 nM	4.8	0.099 nM
CC(C)C[C@H](NC(=O)[C@H](Cc1c[nH]c2ccccc12)NC(=O)[C@H](CCCNC(=N)N)NC(=O)[C@@H](NC(=O)[C@H](Cc1ccccc1)NC(=O)[C@H](CC(=O)O)NC(=O)[C@H](CCC(N)=O)NC(=O)[C@H](C)NC(=O)[C@H](CCCNC(=N)N)NC(=O)[C@H](CCCCNC(=O)COCCOCCNC(=O)COCCOCCNC(=O)CC[C@H](NC(=O)CCCCCCCCCCCCCCCCCCC(=O)O)C(=O)O)NC(=O)[C@H](CO)NC(=O)[C@H](CC(=O)O)NC(=O)[C@H](CC(C)C)NC(=O)[C@](C)(Cc1ccccc1)NC(=O)[C@H](CCCCN)NC(=O)[C@H](CO)NC(=O)[C@@H](NC(=O)[C@H](CC(=O)O)NC(=O)[C@H](CO)NC(=O)[C@@H](NC(=O)[C@H](Cc1ccccc1)NC(=O)[C@@H](NC(=O)CNC(=O)[C@H](CCC(N)=O)NC(=O)C(C)(C)NC(=O)[C@@H](N)Cc1c[nH]cn1)[C@@H](C)O)[C@@H](C)O)C(C)C)C(C)C)C(=O)N[C@@H](CC(C)C)C(=O)N[C@@H](CCC(=O)O)C(=O)NC(C)(C)C(=O)NCC(=O)O [Peptide 158] (H-H[Aib]QGTFTSDVSK[αMeF]LDSK([AEEA-AEEA-γGlu-C20 diacid])RAQDFVRWLLE[Aib]G-OH; N-terminus assumed)	0.304 nM	2.2	0.333 nM
CC(C)C[C@H](NC(=O)[C@H](Cc1c[nH]c2ccccc12)NC(=O)[C@H](CCCNC(=N)N)NC(=O)[C@@H](NC(=O)[C@H](Cc1ccccc1)NC(=O)[C@H](CC(=O)O)NC(=O)[C@H](CCC(N)=O)NC(=O)[C@H](C)NC(=O)[C@H](CCCNC(=N)N)NC(=O)[C@H](CCCCNC(=O)COCCOCCNC(=O)COCCOCCNC(=O)CC[C@H](NC(=O)CCCCCCCCCCCCCCCCCCC(=O)O)C(=O)O)NC(=O)[C@@H](NC(=O)[C@H](CC(=O)O)NC(=O)[C@H](CC(C)C)NC(=O)[C@](C)(Cc1ccccc1)NC(=O)[C@H](CCCCN)NC(=O)[C@H](CO)NC(=O)[C@@H](NC(=O)[C@H](CC(=O)O)NC(=O)[C@H](CO)NC(=O)[C@@H](NC(=O)[C@H](Cc1ccccc1)NC(=O)[C@@H](NC(=O)CNC(=O)[C@H](CCC(N)=O)NC(=O)C(C)(C)NC(=O)[C@@H](N)Cc1c[nH]cn1)[C@@H](C)O)[C@@H](C)O)C(C)C)[C@@H](C)O)C(C)C)C(=O)N[C@@H](CC(C)C)C(=O)N[C@@H](CCC(=O)O)C(=O)NC(C)(C)C(=O)NCC(=O)O [Peptide 159]	0.145 nM	2.0	0.145 nM
